Test results as given in BindingDB's records for doi:10.7270/Q2MS3R62 (Burnham Center For Chemical Genomics, 2007).

Target: Heat shock cognate 71 kDa protein (Homo sapiens, UniProt P11142)
Sequence (P11142 whole entry): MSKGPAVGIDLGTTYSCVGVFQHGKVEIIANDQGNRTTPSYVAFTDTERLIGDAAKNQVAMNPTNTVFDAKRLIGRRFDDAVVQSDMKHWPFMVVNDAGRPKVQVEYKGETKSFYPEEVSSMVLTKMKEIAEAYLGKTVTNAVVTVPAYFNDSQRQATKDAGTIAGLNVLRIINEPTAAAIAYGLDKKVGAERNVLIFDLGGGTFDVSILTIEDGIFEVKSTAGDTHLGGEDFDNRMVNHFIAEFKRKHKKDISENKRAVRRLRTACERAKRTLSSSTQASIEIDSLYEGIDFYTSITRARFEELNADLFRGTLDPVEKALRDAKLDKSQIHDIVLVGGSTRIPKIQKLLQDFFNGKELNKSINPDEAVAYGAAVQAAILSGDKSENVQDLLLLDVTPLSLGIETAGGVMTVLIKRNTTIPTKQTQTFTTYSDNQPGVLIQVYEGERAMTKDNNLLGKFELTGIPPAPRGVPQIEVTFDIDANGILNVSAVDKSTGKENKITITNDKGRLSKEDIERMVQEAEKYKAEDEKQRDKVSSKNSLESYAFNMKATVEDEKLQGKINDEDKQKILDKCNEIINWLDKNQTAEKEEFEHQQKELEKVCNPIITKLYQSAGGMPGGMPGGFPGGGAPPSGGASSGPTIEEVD

Q: How did the IC50 turn out when `C=c1[nH]n(-c2cccc(C(=O)O)c2)c(=O)c1=CC=Cc1ccco1` [SMR000113614] was run?
A: Its IC50 is 999 µM.

Q: For `CC(=O)N1CCC2(CC1)c1c(n[nH]c1C)OC(=N)C2C#N` (configuration not stated) [6-azanyl-1'-ethanoyl-3-methyl-spiro[2H-pyrano[2,3-c]pyrazole-4,4'-piperidine]-5-carbonitrile], which IC50 is on record?
A: The IC50 was 999 µM.
